Measured values published in patent EP1997826A2, “Synthetic ligands for immunoglobulins and pharmaceutical compositions containing them” (Tecnogen S.p.A., priority 2007, dated 2008).
Where two headings read alike, the source gives them in different places.

Legend:
[1] = test system: male rats of the CD1 species; format: in vivo, rat; conditions: for dose inhibiting the inflammatory reaction completely: rat, intradermal; for Inhibition of skin reaction (%): intradermal with IgE ascitic fluid
Procedure: Passive cutaneous anaphylaxis in the rat was induced according to the procedure described by Ovary et al., 1952, Int. Arch. Allergy Appl. Immunol. 3:293-301. Rat ascitic fluid containing specific IgE against the ovalbumin antigen was injected in the shaved back of male rats of the CD1 species (Charles River, Italy). Ascitic fluid at different dilutions (from 20 to 20 000 times in PBS) was applied by intradermal injections at a volume of 50 µl, permitting the IgEs present in the ascitic fluid to bind to the FcεRs of the local mast cells, sensitizing them. On the next day, 1 mg of ovalbumin and the dye Evans Blue at a concentration of 2.0%, dissolved in 1 ml of PBS, were injected intravenously. After 30 minutes, the appearance, on the rats' backs, of stained areas in the dermis (wheals) with extent and intensity of staining proportional to the quantity of antigen-specific IgEs injected with the ascitic fluid, was observed. The experiment included a negative control, represented by the intradermal injection of 50 µl of PBS without ascitic fluid, and there was no corresponding appearance of staining. The rats were sacrificed and comparative evaluation of the dimensions and intensity of coloration of the wheals that developed was carried out by densitometric analysis of colour photographs of the animals taken with a single camera, a single film and in the same conditions of exposure times, lighting and orientation. The densitometric analyses were performed with the aid of the IMAGE PRO-PLUS software (Media Cybernetics, Inc.). On the basis of the results obtained in the IgE-FcεR linear binding assay (absence of inhibitors), selecting as reference point the value of dilution of the ascitic fluid at which the most intense inflammatory reaction was observed (the wheal with most intense staining, and consequently the maximum signal on the densitometer), an assay of inhibition of the allergic reaction was performed using peptide lB and the comparative peptide. For this purpose, 25 µl of ascitic fluid containing IgE suitably diluted was incubated with 25 µl of PBS containing different doses of the test compounds (0.025, 0.25, 2.5, 25, 250 and 2500 µg). A single rat was used for each compound. The back of each rat was shaved and was then subdivided into 8 sections by making marks to delimit the zones in which the injections were made. The mixture (50 µl) containing the ascitic fluid and the compounds at the various doses was administered intradermally at each selected point. An injection of 25 µl of ascitic fluid suitably diluted and incubated with 25 µl of PBS was used as the positive control, and 50 µl of PBS was used as the negative control. After 24 hours, the antigen was injected together with the Evans Blue dye as previously described and thirty minutes later, corresponding to the injection sites on the rats' backs, the appearance of coloured wheals was observed, with intensity and dimensions markedly less than in the zones in which higher concentrations of compounds had been applied.

[2] = test system: immunoglobulin fraction of the raw serum; assay: affinity chromatography of raw rabbit serum on peptide immobilized on CH-Sepharose-4B; format: binding; conditions: 50 mM Bis-Tris pH 6.5, elution with acetic acid 0.1 M pH 3.0, albumin eluted to the dead volume
Procedure: (§1) The peptide of formula (IB) prepared in Example 1 (10 mg) was dissolved in 5 ml of aqueous solution of sodium bicarbonate 0.1 M, NaCl 0.5 M, pH 8.5 and then added to 0.5 g of activated resin CH-Sepharose-4B (Amersham Biosciences, Uppsala, Sweden, Cat. No. 17-0490-01), a preactivated support for affinity chromatography for the direct coupling of peptides and proteins. The suspension was stirred for 24 hours and the extent of coupling was monitored by taking samples of the reaction mixture, at various times, followed by analysis by RP-HPLC.
(§2) Approximately 90-95% of the initial peptide is found to be bound covalently to the resin after 24 hours. The derivatized resin is incubated with 0.1 M Tris, pH 8.5 to block any sites of the resin that are still reactive, and is then packed in a glass column 100 x 0.6 cm I.D. with a variable piston (OMNIFIT, Cat. No. 006CC-06-10-FF).
(§3) For the purification of immunoglobulins from serum, the column was equilibrated with a buffer 50 mM Bis-Tris (Sigma, Cat. No. B9754), pH 6.5, to a flow of 1 ml/min, monitoring the eluent at 280 nm. Raw rabbit serum (Sigma, Cat, No. R9133) was loaded in the column and, after elution of the material that was not bound, the eluent was changed to acetic acid 0.1 M, pH 3.0, for elution of the adsorbed material. […]

[3] = test system: immunoglobulins (IgG, IgM, IgA and IgE); assay: affinity chromatography of raw murine serum on peptide immobilized on CH-Sepharose-4B; format: binding; conditions: Western Blot, albumin not retained
[4] = test system: immunoglobulins (IgG, IgM, IgA and IgE); assay: affinity chromatography of raw human serum on peptide immobilized on CH-Sepharose-4B; format: binding; conditions: Western Blot, albumin not retained
Procedure: as §1, §2, §3

[5] = molar value printed in brackets

Molecule	dose inhibiting the inflammatory reaction completely [1] [µg]	dose inhibiting the inflammatory reaction completely [1, 5]	retention of immunoglobulins by the peptide column [2]	retention of immunoglobulins by the peptide column [3]	Inhibition of skin reaction (%) ([1]; Dose of Peptide 0.025 (µg/ml))	Inhibition of skin reaction (%) ([1]; Dose of Peptide 0.25 (µg/ml))	Inhibition of skin reaction (%) ([1]; Dose of Peptide 2.5 (µg/ml))	Inhibition of skin reaction (%) ([1]; Dose of Peptide 25 (µg/ml))	Inhibition of skin reaction (%) ([1]; Dose of Peptide 250 (µg/ml))	Inhibition of skin reaction (%) ([1]; Dose of Peptide 2500 (µg/ml))	activity greater than the activity of the comparative peptide ([1]; rat passive cutaneous anaphylaxis)	retention of immunoglobulins by the peptide column [4]
C[C@H](O)[C@@H](NC(=O)[C@H](N)CCCNC(=N)N)C(=O)N[C@H](Cc1ccc(O)cc1)C(=O)NCCCC[C@H](NC(=O)[C@@H](Cc1ccc(O)cc1)NC(=O)[C@H](NC(=O)[C@H](N)CCCNC(=N)N)[C@H](C)O)C(=O)NCCCC[C@H](NC(=O)[C@H](CCCCNC(=O)[C@@H](Cc1ccc(O)cc1)NC(=O)[C@H](NC(=O)[C@H](N)CCCNC(=N)N)[C@H](C)O)NC(=O)[C@@H](Cc1ccc(O)cc1)NC(=O)[C@H](NC(=O)[C@H](N)CCCNC(=N)N)[C@H](C)O)C(=O)NCC(=O)O [Comparative peptide, (H-D-Arg-D-Thr-D-Tyr-)4-L-Lys2-L-Lys-Gly-OH, reference compound]	25	11.6 nmol										
(H-L-Cys(p-MeOBzl)-D-Arg-D-Thr-D-Tyr)4-L-Lys2-L-Lys-L-Lys-OH [Peptide IB]	2.5	approx. 0.8 nmoles	able to retain the immunoglobulin fraction of the raw serum	able to retain the immunoglobulins (IgG, IgM, IgA and IgE)	35	60	100	100	100	100	approx. 15 times	able to retain the immunoglobulins (IgG, IgM, IgA and IgE)
